Reference: patent US9034831B2, “Pharmaceutical composition for a hepatitis C viral protease inhibitor” (Boehringer Ingelheim International GmbH, priority 2009, dated 2015)
Structures can show the parent of a compound that is named as a salt.

Assay: Solubility of drug substance in the compositions as a function of temperature
Type: physicochemical
Details: in the compositions of the invention

- solubility (temperature dependence): increases as the temperature decreases
Compound: C=C[C@@H]1C[C@]1(NC(=O)[C@@H]1C[C@@H](Oc2cc(-c3csc(NC(=O)C(C)C)n3)nc3c(Br)c(OC)ccc23)CN1C(=O)[C@@H](NC(=O)OC1CCCC1)C(C)(C)C)C(=O)O [Compound (1) sodium salt]
